A melting point compilation (Tetko et al.; mined from patent text by program, amines drawn as free bases though some values may be those of a salt)

Row | Structure (SMILES) | melting point [°C]
1 | CN1C(=O)CC[C@]2(C)c3ccc(Sc4nc5cc([N+](=O)[O-])ccc5s4)cc3CC[C@@H]12 | 96 to 100
2 | CCc1cccc(C)c1CNc1nc(Br)cnc1N | 155
3 | OCCC1(c2ccccn2)CCNC1 (stereo not drawn) | 50 to 55
4 | Cc1cc(OCCNC(=O)C2Cc3ccccc3N2S(=O)(=O)c2ccc(-c3cc(C(F)(F)F)ccc3Cl)cc2)ccc1CC(=O)O (stereo not drawn) | 110 to 115
5 | COc1nc(NC(=O)NS(=O)(=O)c2cccc3c2OS(=O)(=O)C(C)=C3)c(Cl)c(OC)n1 | 236 to 237
6 | Cc1ccc(OCC2=NCCN2)c(C)c1NS(C)(=O)=O | 216 to 217
7 | COC(=O)C1=Cc2cc(-c3ccc(N4CCCCC4)cc3)ccc2S(=O)(=O)CC1 | 202 to 204
8 | Cc1ccc(C2SC(=O)NC2=O)cc1C (stereo not drawn) | 121 to 122
9 | O=C(Nc1ccc(OCCCN2CCc3ccccc3C2)cc1)c1cccc2c(=O)c3ccccc3[nH]c12 | 182
10 | Cc1csc(Cl)c1NC(=S)Nc1cscc1N | 132 to 135
11 | FC(F)(F)Oc1ccc2nc(C(F)(F)F)[nH]c2c1 | 158 to 160
12 | CN(C)C(=O)CC(=O)c1ccc(C(=O)CC(=O)C(C)(C)C)cc1 | 159 to 160
13 | NC(=O)c1nnn(Cc2ccc(C(=O)c3c(Cl)cccc3Cl)cc2)c1N | 165 to 167
14 | CN=Cc1c(C(=O)OC)[nH]c2c(C)ccc(C)c12 | 261 to 262
15 | CC(=O)n1ccc(=O)c(O)c1C | 152 to 160
16 | CN(Cc1ccc(NC(=O)C2=Cc3cc(-c4ccsc4)ccc3OCC2)cc1)C1CCOCC1 | 194 to 195
17 | C=C1[C@@H](NC(=O)C(F)(F)F)CC(O)O[C@H]1C (stereo partly drawn) | 168 to 170
18 | Cc1noc(NC(=O)N2CCN(c3nc(-c4cccc(C(F)(F)F)c4)cs3)CC2)c1C | 230 to 231
19 | O=C(Nc1ccc(OC(F)(F)F)cc1)N[C@H]1CC[C@@H](Oc2ccc(C(=O)O)cc2)CC1 | 210 to 212
20 | CC1CC2C3CCC4=CC(=O)C=CC4(C)C3=CCC2(C)C1C(=O)CN1CCN(c2cc(N3CCCC3)nc(NC34CC5CC(CC(C5)C3)C4)n2)CC1 (stereo not drawn) | 155 to 172
21 | CC12CCC(=O)C=C1CCC1C2CCC2(C)C(C(=O)c3ccccc3)CCC12 (stereo not drawn) | 171 to 173
22 | CCCCOc1ccc(S(=O)(=O)C2(C(=O)NO)CCN(CCCC)CC2)cc1 | 121
23 | COCCNCCOc1ccc(NC(=O)c2ccccc2NS(C)(=O)=O)cc1 | 164 to 165

Row | Structure (SMILES) | melting point [°C]
24 | CN1CCc2c(sc3c2C(=O)N(CCCl)CN3)C1 | 159 to 161
25 | CCOC(=O)c1c(O)c2cccnc2n(C)c1=O | 158 to 160
26 | O=C(O)c1cc(Cl)ccc1-n1cccc1 | 178
27 | O=C(NC1CCCCC1)n1cc(F)c(=O)[nH]c1=O | 276 to 278
28 | Nc1ccccc1CNC(=O)C1Cc2ccccc2N1S(=O)(=O)c1ccc(-c2ccc(F)cc2F)cc1 (stereo not drawn) | 93 to 96
29 | CCCCCCCCCCC(O)C(O)CNCc1ccccc1 (stereo not drawn) | 52.6 to 53
30 | O=c1c(Cl)c(Cl)cnn1-c1cc([N+](=O)[O-])c(Cl)cc1F | 168
31 | COc1ccccc1N1CCN(C(=O)N(C)c2nc(C)c(C)nc2OC)CC1 | 140 to 142
32 | CCOC(=O)C1CCNC(=O)C1=O (stereo not drawn) | 148 to 151
33 | CC(Cc1cc(F)cc2cc(Cl)oc12)NC(=O)OC(C)(C)C (stereo not drawn) | 133 to 135
34 | COc1ccc(C(=O)Nc2ccc(F)c(F)c2)cc1NC(=S)Nc1cc(Cl)cc(Cl)c1 | 180 to 183
35 | CCCOc1ccc(-c2c(Cl)ncn2-c2ccc(S(C)(=O)=O)cc2)cc1 | 161 to 163
36 | O=C(Nc1ccncc1)OC1CN2CCC1CC2 (stereo not drawn) | 149 to 151
37 | CCCOc1ccc2c(c1)C(c1ccc(OC)cc1OCC(=O)O)CC2c1ccc2c(c1)OCO2 (stereo not drawn) | 177 to 178
38 | COc1cc(N)ccc1-c1cnc(C)s1 | 125 to 129
39 | CCOC(=O)c1csc(NC(=O)c2cccc(C#N)c2)n1 | 203 to 204
40 | O=C1Nc2cnc(Nc3ccc(N4CCOCC4)cc3)nc2S/C1=C/c1ccc([N+](=O)[O-])cc1 | 302 to 304
41 | COc1cccc(SCCF)c1S(N)(=O)=O | 127
42 | COc1ccc(OC)c([Si](C)(C)COc2cc(C(C)(C)C)c(O)c(C(C)(C)C)c2)c1 | 103
43 | COc1ccc2cccc(C(CNC(C)=O)COS(C)(=O)=O)c2c1 (stereo not drawn) | 104 to 106
44 | C#CCOC(=O)c1ccc(O)c(Cl)c1 | 144 to 145
45 | O=C(O)CCNS(=O)(=O)c1ccc(N2CCC(c3ccccc3)CC2)cc1 | 145 to 147
46 | Cc1cc(C(C)NC(=O)N(C)O)c(C)s1 (stereo not drawn) | 104 to 106

Row | Structure (SMILES) | melting point [°C]
47 | Cc1cc(C)c2nc(C3CC3)n(Cc3ccc(C4(C(=O)O)CC=CC4)s3)c2n1 | 184 to 185
48 | Cc1nnc(-c2cc(O)c(O)c([N+](=O)[O-])c2)o1 | 245 to 246
49 | CCn1cc(C(=O)O)c(=O)cc1-c1ccc(O)cc1 | 243 to 245
50 | C#CCC(O)(c1cncnc1)C(C)(C)C (stereo not drawn) | 174 to 176
51 | COc1cc(C2C3=C(COC3=O)Nc3ccc4cc[nH]c4c32)cc(OC)c1OC (stereo not drawn) | 299 to 301
52 | CCCCCCSCCSc1nc2nc(C)cc(O)n2n1 | 126
53 | Nc1ccc(S(=O)(=O)CCO)cc1O | 115 to 117
54 | CCOC(=O)C1=C(C)N=C(SCc2ccc(OC)cc2)N(C(=O)OCC)C1c1ccccc1SC (stereo not drawn) | 87 to 89
55 | CS(=O)(=O)Nc1ccc(-c2ccc(S(=O)(=O)n3ccc(C=CC(=O)NO)c3)cc2)cc1 | 160 to 167
56 | CCCCc1ncc(CC(=O)N[C@@H](Cc2ccccc2)C(=O)O)n1Cc1ccccc1Cl | 168 to 170
57 | N#Cc1ccc(Nc2cccc(I)c2)c([N+](=O)[O-])c1 | 211 to 212
58 | CCOc1c2c(c([N+](=O)[O-])c(OCC)c1OCC)C(=O)OC2 | 82.5 to 84.5
59 | N#Cc1cc(C(=O)O)cc(O)c1O | 269 to 271
60 | CCNC(=O)C(=CNc1ccc(I)cc1)C(=O)c1ccccc1Cl | 160 to 162
61 | Cc1cc(SC2=C(O)CC(CCc3cccs3)(C(C)C)OC2=O)c(C(C)(C)C)cc1CO (stereo not drawn) | 73 to 77
62 | COc1ccc(N2CCN(c3c(C)c4c(c(OC)c3C)OC(C)C4)CC2)cc1 (stereo not drawn) | 109 to 111
63 | O=C(O)C(O)=CC(=O)c1cn(Cc2ccccc2)c(=O)n(Cc2ccccc2)c1=O | 186 to 188
64 | CCCS(=O)(=O)c1csc2c(=O)n([C@H](C)[C@](O)(Cn3cncn3)c3ccc(F)cc3F)cnc12 | 115 to 122
65 | O=C1C(=Cc2c[nH]c3ccccc23)N(Cc2ccccc2)C(=O)N1Cc1cc(C(F)(F)F)cc(C(F)(F)F)c1 | 154 to 156
66 | CC(C)(C)OC(=O)[C@@H]1CCCN1C(=O)CCC(=O)c1ccc(Br)cc1 | 70 to 71
67 | O=[N+]([O-])c1ccc(C=NNC2O[C@H](COCc3ccccc3)[C@@H](OCc3ccccc3)[C@H]2OCc2ccccc2)cc1 (stereo partly drawn) | 93
68 | CCC(C)(C)C(O)(C#Cc1cccnc1)c1cncnc1 (stereo not drawn) | 170 to 172

Other lines, results leading:

Row | melting point [°C] | Structure (SMILES)
69 | 224 to 225 | O=C(Cn1c(-c2ccc(C(F)(F)F)cc2)nc2cccnc21)NCc1ccccc1
70 | 233 to 234 | NC(=O)c1sc(Nc2ccccc2)c2c1CCc1cn[nH]c1-2
71 | 292 | CCN(CC)c1ccc2c(c1)O/C(=C1/Oc3cc(N(CC)CC)ccc3C1=O)C2=O
72 | 202 | Cc1nc(C)c(C(=O)Nc2cc(Oc3ccc4nc(NC(=O)C5CC5)cn4n3)ccc2F)o1
73 | 97 to 99 | COC(=O)CC(CSc1ccc2ccccc2c1)C(=O)O (stereo not drawn)
74 | 220 | CC1=C(C(=O)NN)C(c2ccccc2Cl)c2c[nH]nc2N1 (stereo not drawn)
75 | 156 to 157 | CS(=O)(=O)c1ccc(-c2cnn(Cc3cccc([N+](=O)[O-])c3)c(=O)c2-c2ccc(F)cc2)cc1
76 | 207 to 208 | O=C(Nc1cccnn1)N1CCN(c2cc(-c3ccccc3F)ncn2)CC1
77 | 172 to 173 | FCCn1ncnc1COc1nn2c(-c3ccccc3F)nncc2c1-c1ccccc1F
78 | 90 to 100 | Cc1cc(CNC(=O)c2cc(-c3ccc(-c4ccccc4C)cc3)nn2C)ccc1OC(C)(C)C(=O)O
79 | 120 to 123 | Cc1cc(-c2c(O)c(=O)c2=O)c2c(C)ccc(C(C)C)cc1-2
80 | 69 to 70 | Cc1ccc2c(c1)Sc1cc(C)ccc1O2
81 | 99 to 104 | COC(=O)c1ccccc1Sc1cc(C=O)ccc1OC
82 | 159 to 162 | NCC1Cc2cc(-c3ccccc3)cc(-c3cc(Cl)ccc3Cl)c2O1 (stereo not drawn)
83 | 185 | CC1(c2ccccc2Cl)C(=O)Nc2ccc(Cl)cc21 (stereo not drawn)
84 | 253 to 254 | N#Cc1c(-c2cccc(C(=O)N3CCOCC3)c2)cc(-c2ccccc2O)nc1NC(=O)c1cccs1
85 | 137 to 139 | Cn1nnc(-c2ccc(C=O)cc2)n1
86 | 199 to 201 | COc1cc(N2CCCCC2)ccc1C(=O)c1ccccc1C(=O)O
87 | 110 to 112 | Cc1oc(-c2ccccc2)nc1COc1ccc(CON=C(CCC(N)=O)c2ccccc2)cc1
88 | 247 to 248 | CCc1nn(-c2ccccn2)c2[nH]c3cc(F)c(F)cc3c(=O)c12
89 | 195 to 196 | Cc1nc(NC(=O)c2cccc(C(F)(F)F)c2)sc1C(=O)NCc1ccccc1
90 | 72 to 75 | C=CCOc1cccc(-c2n[nH]c(-c3ccccc3C)n2)c1
91 | 141 to 142 | COCOc1cc(COc2nn(Cc3ccccc3)cc2C=O)ccc1OCc1nc(-c2ccco2)oc1C
92 | 84.5 to 86.1 | Nc1nc2ccccc2c2c1nc(-c1ccccc1)n2CCCCNC(=O)c1cccnc1
93 | 192 | COc1ccc(-c2cc(C(F)(F)F)n3cnc(C#N)c3n2)cc1
94 | 167 to 168 | Cc1ccc2oc(-c3ccccc3-c3nnn[nH]3)c(Br)c2c1
95 | 191 to 192 | COc1c(C=O)ccc(OCC(=O)O)c1Cc1ccc2c(Cl)cccc2c1
96 | 182 to 184 | Cn1cc(C(=O)NCc2ccc(Cl)cc2)c(=O)c2cc(/C=C\CO)cc(F)c21
97 | 248 | Cc1cc(Sc2sc(-c3ccc(C(F)(F)F)cc3)nc2C)ccc1Cc1nn[nH]n1
98 | 231 to 233 | CN(CCF)c1ccc2cc(-c3nc4ccccc4s3)c(=O)oc2c1
